In patent US20240092799A1, “MNK INHIBITORS” (Hepagene Therapeutics (HK) Limited, priority 2020, published 2024):

What follows are molecules tested against MNK2 (Homo sapiens (Human), UniProt Q9HBH9) (assay: MNK Biochemical Enzymatic Assay (ADP-Glo), MNK2 binding assay).
Method: MNK Biochemical Enzymatic Assay. This protocol establishes the binding assays for MNK1 and MNK2 using ADP-Glo assay. MNK phosphorylates the substrate and converts ATP to ADP, which was detected by Envision and used to reflect the reminding activity of MNK. Reagents and equipment used in the assay are listed below, followed by the protocol.
• a) Add 50 μL compound to 384-well dilution plate • b) Dilute compound 1:3 in succession in DMSO for each column for 10+0 pts (refer to dilution plate map) • c) Transfer 0.1 μL diluted compound solution in each row to 384 assay plate using Echo, each column containing 2 replicates (refer to assay plate map) • d) Add 5 μL enzyme working solution to 384-well assay plate, centrifuge 1000 RPM for 1 min • e) Incubate at 25° C. for 15 min • f) Add 5 μL substrate working solution to initiate reaction • g) Incubate at 25° C. for 60 min • h) Add 10 μL ADP Glo reagent, centrifuge 1000 RPM for 1 min • i) Incubate at 25° C. for 60 min • j) Add 20 μL kinase detection reagent, centrifuge 1000 RPM for 1 min • k) Incubate at 25° C. for 60 min • l) Read on Envision for US LUM as RLU • m) Data analysis: IC50s were determined based on a non-linear regression analysis of data collected.

Sequence of MNK2 (Q9HBH9 whole entry): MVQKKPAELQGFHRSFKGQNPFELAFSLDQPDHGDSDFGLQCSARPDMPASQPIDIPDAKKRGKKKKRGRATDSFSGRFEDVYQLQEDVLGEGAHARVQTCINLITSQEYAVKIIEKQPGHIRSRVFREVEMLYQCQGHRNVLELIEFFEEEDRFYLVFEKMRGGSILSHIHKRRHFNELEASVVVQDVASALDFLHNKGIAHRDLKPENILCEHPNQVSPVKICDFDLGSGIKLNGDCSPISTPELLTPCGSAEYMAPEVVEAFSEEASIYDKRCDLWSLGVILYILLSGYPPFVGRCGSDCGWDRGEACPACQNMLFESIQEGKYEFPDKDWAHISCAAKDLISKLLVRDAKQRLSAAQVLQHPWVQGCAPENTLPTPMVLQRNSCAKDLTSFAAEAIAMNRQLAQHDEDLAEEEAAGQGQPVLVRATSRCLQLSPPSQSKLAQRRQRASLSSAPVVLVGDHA

First: Cc1nc(Nc2cc(C)c3c([n+]2[O-])C2(CCCCC2)NC3=O)cc(N[C@H]2CCOC2)n1 [Compound XXIX-AY, (S)-4′-methyl-2′-((2-methyl-6-((tetrahydrofuran-3-yl)amino)pyrimidin-4-yl)amino)-5′-oxo-5′,6′-dihydrospiro[cyclohexane-1,7′-pyrrolo[3,4-b]pyridine] 1′-oxide]
Second: Cc1cc(Nc2ccnc(N[C@H]3CCOC3)c2)[n+]([O-])c2c1C(=O)NC21CCCCC1 [Compound XXIX-H, (S)-4′-methyl-5′-oxo-2′-((2-((tetrahydrofuran-3-yl)amino)pyridin-4-yl)amino)-5′,6′-dihydrospiro[cyclohexane-1,7′-pyrrolo[3,4-b]pyridine] 1′-oxide]
The IC50 of the first is lower: 10 to 100 nM for the first, 100 to 1000 nM for the second. The first is the more potent here.

`Cc1cccnc1Nc1cc(Nc2cc(C)c3c([n+]2[O-])C2(CCCCC2)NC3=O)ncn1` [Compound XXIX-AZ, 4′-methyl-2′-((6-((3-methylpyridin-2-yl)amino)pyrimidin-4-yl)amino)-5′-oxo-5′,6′-dihydrospiro[cyclohexane-1,7′-pyrrolo[3,4-b]pyridine] 1′-oxide] and `Cc1cc(Nc2cc(NCCO)ncn2)[n+]([O-])c2c1C(=O)NC21CCCCC1` [Compound XXIX-I, 2′-((6-((2-hydroxyethyl)amino)pyrimidin-4-yl)amino)-4′-methyl-5′-oxo-5′,6′-dihydrospiro[cyclohexane-1,7′-pyrrolo[3,4-b]pyridine] 1′-oxide] fall in the same range of IC50: 10 to 100 nM for the first, 10 to 100 nM for the second.

`COCCNc1cc(Nc2cc(C)c3c([n+]2[O-])C2(CCCCC2)NC3=O)ncn1` [Compound XXIX-B, 2′-((6-((2-methoxyethyl)amino)pyrimidin-4-yl)amino)-4′-methyl-5′-oxo-5′,6′-dihydrospiro[cyclohexane-1,7′-pyrrolo[3,4-b]pyridine] 1′-oxide] and `COCCCNc1cc(Nc2cc(C)c3c([n+]2[O-])C2(CCCCC2)NC3=O)ncn1` [Compound XXIX-C, 2′-((6-((3-methoxypropyl)amino)pyrimidin-4-yl)amino)-4′-methyl-5′-oxo-5′,6′-dihydrospiro[cyclohexane-1,7′-pyrrolo[3,4-b]pyridine] 1′-oxide] fall in the same range of IC50: 10 to 100 nM for the first, 10 to 100 nM for the second.

`Cc1cc(Nc2cc(N[C@H]3CCCOC3)ncn2)[n+]([O-])c2c1C(=O)NC21CCCCC1` [Compound XXIX-E, (S)-4′-methyl-5′-oxo-2′-((6-((tetrahydro-2H-pyran-3-yl)amino)pyrimidin-4-yl)amino)-5′,6′-dihydrospiro[cyclohexane-1,7′-pyrrolo[3,4-b]pyridine] 1′-oxide] and `Cc1cc(Nc2cc(NC3CCCC3)ncn2)[n+]([O-])c2c1C(=O)NC21CCCCC1` [Compound XXIX-L, 2′-((6-(cyclopentylamino)pyrimidin-4-yl)amino)-4′-methyl-5′-oxo-5′,6′-dihydrospiro[cyclohexane-1,7′-pyrrolo[3,4-b]pyridine] 1′-oxide] fall in the same range of IC50: 10 to 100 nM for the first, 10 to 100 nM for the second.

`Cc1cc(Nc2ncnc3[nH]ccc23)[n+]([O-])c2c1C(=O)NC21CCCCC1` [Compound XXIX-F, 2′-((7H-pyrrolo[2,3-d]pyrimidin-4-yl)amino)-4′-methyl-5′-oxo-5′,6′-dihydrospiro[cyclohexane-1,7′-pyrrolo[3,4-b]pyridine] 1′-oxide] and `Cc1cc(Nc2cc(NC(=O)C3CCCC3)ncn2)[n+]([O-])c2c1C(=O)NC21CCCCC1` [Compound XXIX-G, 2′-((6-(cyclopentanecarboxamido)pyrimidin-4-yl)amino)-4′-methyl-5′-oxo-5′,6′-dihydrospiro[cyclohexane-1,7′-pyrrolo[3,4-b]pyridine] 1′-oxide] fall in the same range of IC50: 0.1 to 10 nM for the first, 0.1 to 10 nM for the second.

Work on `CC(=O)N1CC[C@H](Nc2cc(Nc3cc(C)c4c([n+]3[O-])C3(CCCCC3)NC4=O)ncn2)C1` [Compound XXIX-J, (S)-2′-((6-((1-acetylpyrrolidin-3-yl)amino)pyrimidin-4-yl)amino)-4′-methyl-5′-oxo-5′,6′-dihydrospiro[cyclohexane-1,7′-pyrrolo[3,4-b]pyridine] 1′-oxide] yielded an IC50 of 100 to 1000 nM.
